# “Also recorded” adds a separate entry of the source. Square brackets hold non-standard residues; d marks the D form. Ends that are not written are not given here. Nle = CCCC[C@H](N)C(=O)O; Nva = CCC[C@H](N)C(=O)O
# Experiments:
# [1] = test system: 624.38 cells; assay: pSEM prime, Tyrosinase peptide boost, ex vivo cytotoxicity against human tumor cells; format: in vivo, HHD transgenic mice
# Method: HHD transgenic mice (n=4/group) were immunized (according to the general protocol in FIG. 40) with plasmid (pSEM) expressing the Tyrosinase369-377 epitope by direct inoculation into the inguinal lymph nodes of 25 μg of plasmid in 25 μl of PBS per lymph node at day 0, 3, 14 and 17. […] One week after the boost, splenocytes were stimulated ex vivo with the native Tyrosinase369-377 peptide and assayed against ^51Cr-labeled human tumor cells (624.38 cells) at various E:T ratios. […] Together with the preceding example, this observation illustrates the usefulness of complementing more stringent assays (in vivo cytotoxicity and tetramer staining) with more sensitive assays (ex vivo cytotoxicity after in vitro stimulation) to outline potentially useful analogs.
# [2] = test system: T cells specific for the wild-type NY-ESO-1157-165 epitope; assay: Cross-reactivity and functional avidity of NY-ESO-1 157-165 analogs (IFN-gamma); format: cell-based, HHD transgenic mice
# Source text: A methodology was devised to allow rapid and rational screening of peptide analogs in a fashion coherent with proposed methods of use and modeling the overall immunologic properties (Kon and Koff relative to MHC interaction and TCR binding properties in an integrated fashion). In some instances, the method included generating T cell lines against a natural (non-mutated) epitope (SSX-241-49), and using an immunization strategy potent enough to generate a useful response in transgenic mice carrying human MHC (such as the A2 allele). Peptide analogs were interrogated ex vivo in the presence of competent APCs and the functional impact of T cells specific for natural (non-mutated) epitopes measured. The evaluation was done at various concentrations of analog, because the expected effect was biphasic in the case of cross reactive peptides (activating at limited concentrations and inhibiting at higher concentrations, due to antigen-induced cell death, AICD). Measurement of the following three parameters were used to define basic and useful characteristics of peptide analogs: • 1. […]
# At 7 days after the last boost, the mice were sacrificed and a suspension of splenocytes prepared at 5×10^6 […] cells/ml in complete HL-1 medium. […] The supernatant was harvested and the concentration of IFN-gamma assessed by standard methods such as ELISA. […]
# [3] = test system: target cells coated with natural peptide; assay: Plasmid prime, SSX-2 peptide boost, in vivo cytotoxicity (CFSE); parameters: species or system HHD mice; conditions: spleen and blood; targets coated with 20 μg/ml and 1 μg/ml natural peptide
# Method: Eight groups of mice (n=4) were immunized with plasmid expressing SSX-241-49 natural epitope, by direct inoculation into the inguinal lymph nodes with 25 μg in 25 μl of PBS/each lymph node at day 0, 3, 14 and 17. This was followed by two additional peptide boosts (similar amount) at day 28 and 31, using a negative control peptide (Melan A 26-35 “EAA”), natural peptide or analogs as shown in FIG. 9.
# To evaluate the in vivo response against natural peptide, splenocytes were isolated from littermate control HHD mice and incubated with 20 μg/mL or 1 μg/ml of natural peptide for 2 hours. These cells were then stained with CFSE^hi fluorescence (4.0 μM or 1 μM for 15 minutes) and intravenously co-injected into immunized mice with an equal number of control splenocytes stained with CFSE^lo fluorescence (0.4 μM). Eighteen hours later the specific elimination of target cells was measured by removing spleen and PBMC from challenged animals and measuring CFSE fluorescence by flow cytometry. The relative depletion of the populations corresponding to peptide loaded splenocytes was calculated relative to the control (unloaded) population and expressed as % specific lysis. FIGS. 10 (spleen) and 11 (blood) show the in vivo cytotoxicity elicited by the regimens described in FIG. 7.
# [4] = test system: 624.38 melanoma cells; assay: Plasmid prime, SSX-2 peptide boost, ex vivo cytotoxicity against human tumor cells; format: in vivo, mice; conditions: ex vivo after boost
# Method: Eight groups of mice (n=4) were immunized with plasmid expressing SSX-241-49 natural epitope by direct inoculation into the inguinal lymph nodes with 25 μg in 25 μl of PBS/each lymph node at day 0, 3, 14 and 17. This was followed by two additional peptide boosts (similar amount) at day 28 and 31, using a negative control peptide (Melan A 26-35 “EAA”), natural peptide or analogs as shown in FIG. 9.
# [5] = test system: 51Cr-labeled target cells (T2 cells); assay: Plasmid prime, SSX-2 peptide boost, ex vivo 51Cr cytotoxicity against T2 target cells; format: in vivo, mice; conditions: peptide as boost agent after plasmid; 51Cr T2 targets
# Method: Three groups of mice (n=4) were immunized with a plasmid expressing SSX-241-49 natural epitope by direct inoculation into the inguinal lymph nodes with 25 μg in 25 μl of PBS/each lymph node at day 0, 3, 14 and 17. This was followed by two additional peptide boosts (similar amount) at day 28 and 31. One week after the boost, splenocytes were stimulated ex vivo with SSX-241-49 natural peptide and tested against ^51Cr-labeled target cells (T2 cells) at various E:T ratios (FIG. 8). […] This correlated with the binding and stability parameters determined by ex vivo experimentation.
# [6] = test system: T cell lines against a natural (non-mutated) epitope (SSX-241-49); assay: Cross-reactivity and functional avidity: IFN-gamma from T cell lines against natural SSX-2 41-49 epitope; format: cell-based, HHD transgenic mice; conditions: IFN-gamma from T cell line raised against native SSX-2 41-49; native = 1, lower = more active;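 also: peptide analogs tested ex vivo with competent APCs, IFN-gamma in supernatant measured by ELISA, readouts include minimal triggering concentration, peak effect and concentration at peak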
# [7] = test system: splenocytes stimulated with native peptide; assay: pCTLR2 prime, PRAME peptide boost, ex vivo IFN-gamma ELISA; format: in vivo, HHD transgenic mice; conditions: 2.5 μg peptide boost, 10 μg/ml native peptide, 48 hours
# [8] = test system: native epitope coated cells; assay: pCTLR2 prime, PRAME peptide boost, in vivo cytotoxicity (CFSE); parameters: species or system HHD transgenic mice
# [9] = test system: PRAME425-433-specific T cells; assay: pCTLR2 prime, PRAME peptide boost, tetramer/CD8 co-staining; format: in vivo, HHD transgenic mice; conditions: versus boost with negative control peptide
# [10] = test system: PRAME+ A2+ 624.38 melanoma cells; assay: PRAME immunization, ex vivo cytotoxicity against human tumor cells; format: in vivo, HHD transgenic mice
# Method: This was followed by two peptide boosts (2.5 μg) at day 28 and 31, with the analog L426Nva L433Nle.
# [11] = test system: T cell line specific for the native epitope (PRAME425-433); assay: Cross-reactivity of PRAME425-433 analogs: IFN-gamma from native-epitope-specific T cell line; format: cell-based; conditions: PRAME425-433 analogs at approximately 0.3 μM
# Method: The analogs listed in FIGS. 26-28 were tested for various properties such as improved affinity and stability of binding, cross-reactivity with the native epitope, and immunogenicity as follows in Examples 40-48. […] The observed affinities of the analogs are reported as % binding (compared to the positive control) and ED50, and stability of binding as half time of dissociation. Cross reactivity with the native epitope was assessed by using the analog peptides to stimulate IFN-gamma secretion from a T cell line specific for the native epitope, essentially as described in Example 6. The data shown in FIGS. 26-28 were generated by stimulating with analog peptide at approximately 0.3 μM. […] In some cases, the reported values are the average of two determinations.
# [12] = biological target: HLA-A*0201 (Homo sapiens, UniProt P04439, D140Y/D185E/D98H/E176V/E277Q/G131W/G231S/I119V/I121R/I166T/I218V/L300P/L318F/N151K/N90K/P208A/P217A/Q86G/Q94H/R138H/R169H/T345S); assay: iTopia affinity assay (ED50); format: binding; conditions: PRAME425-433 analogs
# Source text: Avidin-coated microtiter plates containing class I monomer loaded with a so-called placeholder peptide were used to evaluate peptide binding, affinity and off-rate. The monomer-coated plates were supplied as part of the iTopia Epitope Discovery System Kit (Beckman Coulter, Inc., San Diego, Calif., USA). Assay buffers, anti-MHC-FITC mAb and beta2-microglobulin and control peptides were also supplied with the kits.
# Plates were read on the fluorometer. Sigmoidal dose response curves were generated using Prism software.
compound,measurement,setting,value
YVDGTMSQNva (YVDGTMSQ[Nva]) [M370V V377Nva],"ex vivo cytotoxicity against 624.38 cells, in words",[1],robust cytotoxicity against 624.38 cells
"YMDGTMSQV [Tyrosinase 369-377, reference compound]","ex vivo cytotoxicity against 624.38 cells, in words",[1],robust cytotoxicity against 624.38 cells
"L158V: NY-ESO-1 157-165 analog with V for L at position 158 (SVLMWITQC; UniProt P78358 157-165, looked up, variant L158V) [Peptide L158V]","cross-reactivity / activity relative to wild-type, in words",[2],partial retention of activity
CC[C@H](C)[C@H](NC(=O)[C@H](CCCCN)NC(=O)[C@H](CCC(=O)O)NC(=O)[C@H](CO)NC(=O)[C@@H](NC(=O)[C@@H](N)CCCCN)C(C)C)C(=O)N[C@@H](Cc1ccccc1)C(=O)N[C@@H](Cc1ccc(O)cc1)C(=O)N[C@H](C(=O)O)C(C)C [SSX2 41-49 (A42V)],"in vivo cytotoxicity (% specific lysis), in words",[3],increased activity relative to the natural peptide
same,"cytotoxicity against human tumor cells, in words",[4],increased cytotoxicity against human tumor cells
same,response against target cells expressing the natural peptide,[5],higher response against target cells expressing the natural peptide
same,Cross-reactivity and fct avidity (native to analogs)*,[6],0.03
T{Nva}LQHLIG{Nle} (T[Nva]LQHLIG[Nle]) [S425T L426Nva L433Nle],"IFN-γ production by splenocytes (ELISA), in words",[7],ex vivo cytokine production
same,"in vivo cytotoxicity against native epitope, in words",[8],capable of expanding the immunity against the native epitope
same,"expansion of native epitope-specific T cells (tetramer), in words",[9],significantly higher than in mice primed with plasmid and boosted with the negative control peptide
"S{Nva}LQHLIG{Nle} (S[Nva]LQHLIG[Nle]) [Prame 425-433 (L426Nva, L433Nle)]","IFN-γ production by splenocytes (ELISA), in words",[7]; listed as L426Nva L433Nle,greater response
same,"IFN-γ production by splenocytes (ELISA), in words",[7]; listed as PRAME425-433 L426Nva L433Nle,significant enhancement of IFN-γ production
same,"ex vivo cytotoxicity against A2+ PRAME+ 624.38 cells, in words","[10]; mouse, in vivo",cytotoxic immunity against a human tumor cell line; also recorded: significant cytotoxicity against human tumor cells expressing A2 (624.38)
same,"ex vivo cytotoxicity against A2- 624.28 control cells, in words",[10]; negative control cells,no significant activity
same,"IFN-γ production (cross-reactivity) relative to native, in words",[11],significant level of cross-reactivity
same,"in vivo cytotoxicity against native epitope, in words",[8],cytotoxic immunity against native epitope coated cells; also recorded: capable of expanding the immunity against the native epitope
same,"affinity (ED50) / binding characteristics relative to native, in words",[12],"similar, somewhat improved binding characteristics"
same,"expansion of native epitope-specific T cells (tetramer), in words",[9],significantly higher than in mice primed with plasmid and boosted with the negative control peptide

# — patent publication US7605227B2, “Melanoma antigen peptide analogues” (MannKind Corporation, priority 2005, dated 2009)
